“And” between values parts separate entries of the source, which are not always exact repeats. Equal entries are not always repeated.
Tests used:
[1] = target: hCB1 receptor (Homo sapiens, UniProt P21554); experiment: hCB1 Gαq16-coupled calcium mobilization assay in CHO-K1 cells; type: cell-based; conditions: for EC50: hCB1 Ca EC50, CHO cells expressing hCB1 and Gαq16, calcium mobilization
[2] = target: hCB2 receptor (Homo sapiens, UniProt P34972); experiment: hCB2 Gαq16-coupled calcium mobilization assay in CHO-K1 cells; type: cell-based; conditions: hCB2 Ca EC50, CHO cells expressing hCB2 and Gαq16, calcium mobilization
Chain of hCB2 receptor (P34972 whole entry): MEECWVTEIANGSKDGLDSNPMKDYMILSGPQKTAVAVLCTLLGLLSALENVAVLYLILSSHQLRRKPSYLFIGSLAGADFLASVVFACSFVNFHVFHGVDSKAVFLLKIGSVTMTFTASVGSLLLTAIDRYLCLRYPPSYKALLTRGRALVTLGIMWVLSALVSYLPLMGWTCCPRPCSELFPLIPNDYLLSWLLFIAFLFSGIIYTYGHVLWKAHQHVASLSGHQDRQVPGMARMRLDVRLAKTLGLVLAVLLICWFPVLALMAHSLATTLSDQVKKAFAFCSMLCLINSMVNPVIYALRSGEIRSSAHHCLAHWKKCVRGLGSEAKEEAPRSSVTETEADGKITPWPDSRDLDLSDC

Chain of hCB1 receptor (P21554 whole entry): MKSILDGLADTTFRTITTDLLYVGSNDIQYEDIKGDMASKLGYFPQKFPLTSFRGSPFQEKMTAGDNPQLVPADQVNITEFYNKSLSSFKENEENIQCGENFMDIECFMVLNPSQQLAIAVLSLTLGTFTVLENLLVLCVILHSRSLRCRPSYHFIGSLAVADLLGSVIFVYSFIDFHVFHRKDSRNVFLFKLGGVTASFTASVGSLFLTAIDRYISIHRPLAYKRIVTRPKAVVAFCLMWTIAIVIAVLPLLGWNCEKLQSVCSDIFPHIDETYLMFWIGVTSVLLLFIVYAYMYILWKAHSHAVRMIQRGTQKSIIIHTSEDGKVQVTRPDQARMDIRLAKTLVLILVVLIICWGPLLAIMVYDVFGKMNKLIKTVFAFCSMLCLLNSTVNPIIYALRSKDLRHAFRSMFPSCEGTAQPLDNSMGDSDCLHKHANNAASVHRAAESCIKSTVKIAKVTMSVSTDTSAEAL

SMILES	EC50 [1] [nM]	EC50 [2]	hCB1 Ca Emax ([1]; percentage of the maximum CP55,940 signal, CHO cells expressing hCB1 and Gαq16) [%]
CC(C)(NC(=O)c1nn(CCc2ccc(F)cc2)c2ccccc12)c1cccc(C(N)=O)c1 [Compound 46, N-[2-(3-Carbamoylphenyl)propan-2-yl]-1-[2-(4-fluorophenyl)ethyl]-1H-indazole-3-carboxamide]	> 10000	> 10000 nM	–
CC(C)(CN1CCC[C@H]1C(N)=O)NC(=O)c1nn(Cc2ccc(F)cc2)c2ccccc12 [Compound 17, N-{1-[(2S)-2-Carbamoylpyrrolidin-1-yl]-2-methylpropan-2-yl}-1-[(4-fluorophenyl)methyl]-1H-indazole-3-carboxamide]	32 ± 15	101 ± 34 nM	–
O=C(NCC1CCCCC1)c1nn(Cc2ccc(F)cc2)c2ccccc12 [Compound 28, N-(Cyclohexylmethyl)-1-[(4-fluorophenyl)methyl]-1H-indazole-3-carboxamide]	17 ± 1	28 ± 8 nM	–
NC(=O)N1CCC[C@@H](CNC(=O)c2nn(Cc3ccc(F)cc3)c3ccccc23)C1 [Compound 29, N-{[(3S)-1-Carbamoylpiperidin-3-yl]methyl}-1-[(4-fluorophenyl)methyl]-1H-indazole-3-carboxamide]	950 ± 108	178 ± 45 nM	–
COCCCn1nc(C(=O)NC(C)(C)c2cccc(C(N)=O)c2)c2ccccc21 [Compound 59, N-[2-(3-Carbamoylphenyl)propan-2-yl]-1-(3-methoxypropyl)-1H-indazole-3-carboxamide]	> 10000	2560 ± 492 nM	–
CC(C)(C#N)CCCn1nc(C(=O)NC(C)(C)c2cccc(C(N)=O)c2)c2ccccc21 [Compound 57, N-[2-(3-Carbamoylphenyl)propan-2-yl]-1-(4-cyano-4,4-dimethylbutyl)-1H-indazole-3-carboxamide]	742 ± 50	> 10000 nM	–
CN(CC(N)=O)C(=O)C(C)(C)NC(=O)c1nn(Cc2ccc(F)cc2)c2ccccc12 [Compound 13, N-(Carbamoylmethyl)-2-({1-[(4-fluorophenyl)methyl]-1H-indazol-3-yl}formamido)-N,2-dimethylpropanamide]	282 ± 73	74 ± 19 nM	–
CC(=O)Nc1cccc(C(C)(C)NC(=O)c2nn(Cc3ccc(F)cc3)c3ccccc23)c1 [Compound 25, N-[2-(3-Acetamidophenyl)propan-2-yl]-1-[(4-fluorophenyl)methyl]-1H-indazole-3-carboxamide]	–	68 ± 1 nM	–
CC(C)(NC(=O)c1nn(Cc2ccc(F)cc2)c2ccccc12)C(=O)N1CCC[C@@H]1C(N)=O [Compound 15, N-{1-[(2R)-2-Carbamoylpyrrolidin-1-yl]-2-methyl-1-oxopropan-2-yl}-1-[(4-fluorophenyl)methyl]-1H-indazole-3-carboxamide]	> 10000	> 10000 nM	–
C[C@@H](NC(=O)c1nn(Cc2ccc(F)cc2)c2ccccc12)c1cccc(C(N)=O)c1 [Compound 23, N-[(1R)-1-(3-Carbamoylphenyl)ethyl]-1-[(4-fluorophenyl)methyl]-1H-indazole-3-carboxamide]	433 ± 84	–	–
CC1(NC(=O)c2nn(Cc3ccc(F)cc3)c3ccccc23)CCCN(CC(N)=O)C1 (stereo not shown) [Compound 42, N-[1-(Carbamoylmethyl)-3-methylpiperidin-3-yl]-1-[(4-fluorophenyl)methyl]-1H-indazole-3-carboxamide]	39 ± 1	41 ± 14 nM	–
O=C(NCc1ccc(F)cc1)c1nn(Cc2ccc(F)cc2)c2ccccc12 [Compound 18, N,1-Bis[(4-fluorophenyl)methyl]-1H-indazole-3-carboxamide]	181 ± 20	168 ± 24 nM	–
NC(=O)c1ccc(CNC(=O)c2nn(Cc3ccc(F)cc3)c3ccccc23)cc1 [Compound 21, N-[(4-Carbamoylphenyl)methyl]-1-[(4-fluorophenyl)methyl]-1H-indazole-3-carboxamide]	> 10000	1380 ± 149 nM	–
CNC(=O)C(C)(C)NC(=O)c1nn(Cc2ccc(F)cc2)c2ccccc12 [Compound 11, 2-({1-[(4-Fluorophenyl)methyl]-1H-indazol-3-yl}formamido)-N,2-dimethylpropanamide]	182 ± 6	21 ± 3 nM	–
NC(=O)CN1CCC[C@@H](NC(=O)c2nn(Cc3ccc(F)cc3)c3ccccc23)C1 [Compound 41, N-[(3R)-1-(Carbamoylmethyl)piperidin-3-yl]-1-[(4-fluorophenyl)methyl]-1H-indazole-3-carboxamide]	803 ± 73	33 ± 1 nM	–
C[C@H](NC(=O)c1nn(Cc2ccc(F)cc2)c2ccccc12)c1cccc(C(N)=O)c1 [Compound 22, N-[(1S)-1-(3-Carbamoylphenyl)ethyl]-1-[(4-fluorophenyl)methyl]-1H-indazole-3-carboxamide]	26 ± 2	–	–
NC(=O)CN1CCC[C@H](NC(=O)c2nn(Cc3ccc(F)cc3)c3ccccc23)C1 [Compound 40, N-[(3S)-1-(Carbamoylmethyl)piperidin-3-yl]-1-[(4-fluorophenyl)methyl]-1H-indazole-3-carboxamide]	36 ± 14	22 ± 1 nM	–
NC(=O)N1CCC[C@H](CNC(=O)c2nn(Cc3ccc(F)cc3)c3ccccc23)C1 [Compound 30, N-{[(3R)-1-Carbamoylpiperidin-3-yl]methyl}-1-[(4-fluorophenyl)methyl]-1H-indazole-3-carboxamide]	671 ± 161	–	–

SMILES	EC50 [1] [nM]	EC50 [2]	hCB1 Ca Emax ([1]; percentage of the maximum CP55,940 signal, CHO cells expressing hCB1 and Gαq16) [%]
NC(=O)N1CCC[C@@H](NC(=O)c2nn(Cc3ccc(F)cc3)c3ccccc23)C1 [Compound 39, N-[(3R)-1-Carbamoylpiperidin-3-yl]-1-[(4-fluorophenyl)methyl]-1H-indazole-3-carboxamide]	–	207 ± 66 nM	–
NC(=O)N1CCC[C@H](NC(=O)c2nn(Cc3ccc(F)cc3)c3ccccc23)C1 [Compound 38, N-[(3S)-1-Carbamoylpiperidin-3-yl]-1-[(4-fluorophenyl)methyl]-1H-indazole-3-carboxamide]	541 ± 52	59 ± 1 nM	–
O=C(NC1CCCCC1)c1nn(Cc2ccc(F)cc2)c2ccccc12 [Compound 37, N-Cyclohexyl-1-[(4-fluorophenyl)methyl]-1H-indazole-3-carboxamide]	23 ± 2	14 ± 3 nM	–
CC(C)(NC(=O)c1nn(Cc2ccc(Cl)cc2)c2ccccc12)c1cccc(C(N)=O)c1 [Compound 43, N-[2-(3-Carbamoylphenyl)propan-2-yl]-1-[(4-chlorophenyl)methyl]-1H-indazole-3-carboxamide]	> 10000	> 10000 nM	–
CC(C)[C@H](NC(=O)c1nn(Cc2ccc(F)cc2)c2ccccc12)C(=O)O [Compound 5, (2S)-2-({1-[(4-Fluorophenyl)methyl]-1H-indazol-3-yl}formamido)-3-methylbutanoic Acid]	5550 ± 435	516 ± 19 nM	–
CC(C)(NC(=O)c1nn(Cc2ccc(F)cc2)c2ccccc12)C1CCN(C(N)=O)CC1 [Compound 36, N-[2-(1-Carbamoylpiperidin-4-yl)propan-2-yl]-1-[(4-fluorophenyl)methyl]-1H-indazole-3-carboxamide]	2370 ± 452	132 ± 49 nM	–
NC(=O)c1cccc(CNC(=O)c2nn(Cc3ccc(F)cc3)c3ccccc23)c1 [Compound 20, N-[(3-Carbamoylphenyl)methyl]-1-[(4-fluorophenyl)methyl]-1H-indazole-3-carboxamide]	38 ± 14	170 nM and 172 nM	104 ± 6
NC(=O)CN1CCC[C@@H](CNC(=O)c2nn(Cc3ccc(F)cc3)c3ccccc23)C1 [Compound 32, N-{[(3S)-1-(Carbamoylmethyl)piperidin-3-yl]methyl}-1-[(4-fluorophenyl)methyl]-1H-indazole-3-carboxamide]	168 ± 23	150 ± 6 nM	–
NC(=O)[C@@H]1CCCN1C(=O)C1(NC(=O)c2nn(Cc3ccc(F)cc3)c3ccccc23)CC1 [Compound 16, N-{1-[(2S)-2-Carbamoylpyrrolidine-1-carbonyl]cyclopropyl}-1-[(4-fluorophenyl)methyl]-1H-indazole-3-carboxamide]	168 ± 13	190 ± 88 nM	–
NC(=O)c1cccc(C2(NC(=O)c3nn(Cc4ccc(F)cc4)c4ccccc34)CC2)c1 [Compound 27, N-[1-(3-Carbamoylphenyl)cyclopropyl]-1-[(4-fluorophenyl)methyl]-1H-indazole-3-carboxamide]	2740 ± 939	96 ± 6 nM	–
CC(C)(NC(=O)c1nn(Cc2ccc(F)cc2)c2ccccc12)c1cccc(NC(N)=O)c1 [Compound 26, N-{2-[3-(Carbamoylamino)phenyl]propan-2-yl}-1-[(4-fluorophenyl)methyl]-1H-indazole-3-carboxamide]	590 ± 152	–	–
CCOCCn1nc(C(=O)NC(C)(C)c2cccc(C(N)=O)c2)c2ccccc21 [Compound 58, N-[2-(3-Carbamoylphenyl)propan-2-yl]-1-(2-ethoxyethyl)-1H-indazole-3-carboxamide]	> 10000	> 10000 nM	–
CC(C)(NC(=O)c1nn(Cc2ccc(F)cc2)c2ccccc12)C(N)=O [Compound 10, 2-({1-[(4-Fluorophenyl)methyl]-1H-indazol-3-yl}formamido)-2-methylpropanamide]	> 10000	477 ± 142 nM	–
CC(C)(NC(=O)c1nn(CCC2CCCC2)c2ccccc12)c1cccc(C(N)=O)c1 [Compound 49, N-[2-(3-Carbamoylphenyl)propan-2-yl]-1-(2-cyclopentylethyl)-1H-indazole-3-carboxamide]	383 ± 163	189 ± 10 nM	–
CNC(=O)[C@@H](NC(=O)c1nn(Cc2ccc(F)cc2)c2ccccc12)C(C)C [Compound 6, (2S)-2-({1-[(4-Fluorophenyl)methyl]-1H-indazol-3-yl}formamido)-N,3-dimethylbutanamide]	12 ± 2	30 ± 1 nM	–
NC(=O)c1ccccc1CNC(=O)c1nn(Cc2ccc(F)cc2)c2ccccc12 [Compound 19, N-[(2-Carbamoylphenyl)methyl]-1-[(4-fluorophenyl)methyl]-1H-indazole-3-carboxamide]	423 ± 190	52 ± 22 nM	–
CC(c1ccc(F)cc1)n1nc(C(=O)NC(C)(C)c2cccc(C(N)=O)c2)c2ccccc21 (stereo not shown) [Compound 47, N-[2-(3-Carbamoylphenyl)propan-2-yl]-1-[1-(4-fluorophenyl)ethyl]-1H-indazole-3-carboxamide]	243 ± 37	–	–

— publication PMC12439760 (Bioorganic & medicinal chemistry, 2025)
